Reference: US7132425B2, “5-substituted-six-membered heteroaromatic glucokinase activators” (Hoffmann-La Roche Inc., priority 2002, dated 2006)

Experiments:
C57BL/6J mice = assay: Glucokinase activator in vivo screen (blood glucose after oral dosing); details: oral gavage 50 mg/kg after two hour fast, readings 1, 2, 4 and 6 hours post dose, p≦0.05 for two consecutive assay time points
Description: Glucokinase Activator in vivo Screen Protocol: C57BL/6J mice are orally dosed via gavage with Glucokinase (GK) activator at 50 mg/kg body weight following a two hour fasting period. Blood glucose determinations are made five times during the six hour post-dose study period.
Mice (n=6) are weighed and fasted for a two hour period prior to oral treatment.

| melting point | SMILES | decrease in blood glucose compared to vehicle (C57BL/6J mice) |
| --- | --- | --- |
| 93.3 to 97.7 °C | CN(C)c1cnc(NC(=O)[C@H](CC2CCCC2)c2ccc(S(C)(=O)=O)c(Cl)c2)cn1 [Example 15, 2(R)-(3-Chloro-4-methylsulfonyl-phenyl)-3-cyclopentyl-N-(5-dimethylamino-pyrazin-2-yl)-propionamide] | statistically significant (p≦0.05) decrease in blood glucose |
| 146 to 150 °C | CS(=O)(=O)Nc1ccc(NC(=O)[C@H](CC2CCCC2)c2ccc(S(C)(=O)=O)c(Cl)c2)nc1 [Example 12, 2(R)-(3-Chloro-4-methanesulfonyl-phenyl)-3-cyclopentyl-N-(5-methanesulfonylamino-pyridin-2-yl)-propionamide] | statistically significant (p≦0.05) decrease in blood glucose |
| 75 to 76.7 °C | CSCc1cnc(NC(=O)[C@H](CC2CCCC2)c2ccc(S(C)(=O)=O)c(Cl)c2)cn1 [Example 36, 2(R)-(3-Chloro-4-methanesulfonyl-phenyl)-3-cyclopentyl-N-(5-methylsulfanylmethyl-pyrazin-2-yl)-propionamide] |  |
| 101 to 105 °C | Cc1noc(-c2cnc(NC(=O)[C@H](CC3CCCC3)c3ccc(S(C)(=O)=O)c(Cl)c3)cn2)n1 [Example 35, 2(R)-(3-Chloro-4-methanesulfonyl-phenyl)-3-cyclopentyl-N-[5-(3-methyl-[1,2,4]oxadiazol-5-yl)-pyrazin-2-yl]-propionamide] |  |
| 88 to 95 °C | C[S+]([O-])c1cnc(NC(=O)[C@H](CC2CCCC2)c2ccc(S(C)(=O)=O)c(Cl)c2)cn1 (stereo partly drawn) [Example 7, 2(R)-(3-Chloro-4-methanesulfonyl-phenyl)-3-cyclopentyl-N-(5-methanesulfinyl-pyrazin-2-yl)-propionamide] | statistically significant (p≦0.05) decrease in blood glucose |
| 101 to 107 °C | CS(=O)(=O)c1ccc([C@@H](CC2CCCC2)C(=O)Nc2cnc(-c3ccc(C#N)s3)cn2)cc1Cl [Example 79, 2(R)-(3-Chloro-4-methanesulfonyl-phenyl)-N-[5-(5-cyano-thiophen-2-yl)-pyrazin-2-yl]-3-cyclopentyl-propionamide] |  |
| 96 to 102 °C | CS(=O)(=O)c1ccc([C@@H](CC2CCCC2)C(=O)Nc2cnc(-c3ccsc3)cn2)cc1Cl [Example 77, 2(R)-(3-Chloro-4-methanesulfonyl-phenyl)-3-cyclopentyl-N-(5-thiophen-3-yl-pyrazin-2-yl)-propionamide] |  |
| 134 to 139 °C | CS(=O)(=O)c1ccc([C@@H](CC2CCCC2)C(=O)Nc2cnc(C(=O)NO)cn2)cc1Cl [Example 29, 5-[2(R)-(3-Chloro-4-methanesulfonyl-phenyl)-3-cyclopentyl-propionylamino]-pyrazine-2-carboxylic acid hydroxyamide] | statistically significant (p≦0.05) decrease in blood glucose |
| 64 to 69 °C | CS(=O)(=O)c1ccc([C@@H](CC2CCCC2)C(=O)Nc2cnc(C[C@@H](O)CO)cn2)cc1Cl [Example 82, 2(R)-(3-chloro-4-methanesulfonyl-phenyl)-3-cyclopentyl-N-[5-(2(R),3-dihydroxy-propyl)-pyrazin-2-yl]-propionamide] |  |
| 88 to 91.5 °C | CN(C)Cc1cnc(NC(=O)[C@H](CC2CCCC2)c2ccc(S(C)(=O)=O)c(Cl)c2)cn1 [Example 32, 2(R)-(3-Chloro-4-methanesulfonyl-phenyl)-3-cyclopentyl-N-(5-dimethylaminomethyl-pyrazin-2-yl)-propionamide] |  |
| 223 °C (dec.) | CS(=O)(=O)c1ccc([C@@H](CC2CCCC2)C(=O)Nc2cnc(/C(N)=N\O)cn2)cc1 [Example 3, 3-Cyclopentyl-2(R)-N-[5-(N-hydroxycarbamimidoyl)-pyrazin-2-yl]-2-(4-methanesulfonyl-phenyl)-propionamide] | statistically significant (p≦0.05) decrease in blood glucose |
| 100.2 °C | CN(C)S(=O)(=O)c1cnc(NC(=O)[C@H](CC2CCCC2)c2ccc(S(C)(=O)=O)c(Cl)c2)cn1 [Example 9, 2(R)-(3-Chloro-4-methanesulfonyl-phenyl)-3-cyclopentyl-N-(5-dimethylsulfamoyl-pyrazin-2-yl)-propionamide] |  |
| 78 to 81 °C | CS(=O)(=O)c1ccc([C@@H](CC2CCCC2)C(=O)Nc2cnc(SCCO)cn2)cc1Cl [Example 6, 2(R)-(3-Chloro-4-methanesulfonyl-phenyl)-3-cyclopentyl-N-[5-(2-hydroxy-ethylsulfanyl)-pyrazin-2-yl]-propionamide] | statistically significant (p≦0.05) decrease in blood glucose |
| 110 to 120 °C | CS(=O)(=O)c1ccc([C@@H](CC2CCCC2)C(=O)Nc2cnc(C(CO)CO)cn2)cc1Cl [Example 40, 2(R)-(3-Chloro-4-methanesulfonyl-phenyl)-3-cyclopentyl-N-[5-(2-hydroxy-1-hydroxymethyl-ethyl)-pyrazin-2-yl]-propionamide] |  |
| 61 to 65 °C | CS(=O)(=O)c1ccc([C@@H](CC2CCCC2)C(=O)Nc2cnc(C[C@H](O)CO)cn2)cc1Cl [Example 81, 2(R)-(3-Chloro-4-methanesulfonyl-phenyl)-3-cyclopentyl-N-[5-(2(S),3-dihydroxy-propyl)-pyrazin-2-yl]-propionamide] |  |
| 101.9 to 104.8 °C | Cc1nc(-c2cnc(NC(=O)C(CC3CCCC3)c3ccc(S(C)(=O)=O)c(Cl)c3)cn2)no1 (stereo not drawn) [Example 33, 2-(3-Chloro-4-methanesulfonyl-phenyl)-3-cyclopentyl-N-[5-(5-methyl-[1,2,4]oxadiazyl-3-yl)-pyrazin-2-yl]-propionamide] |  |
| 71 to 77 °C | CSc1cnc(NC(=O)[C@H](CC2CCCC2)c2ccc(S(C)(=O)=O)cc2)cn1 [Example 5, 3-Cyclopentyl-2(R)-(4-methanesulfonyl-phenyl)-N-(5-methylsulfanyl-pyrazin-2-yl)-propionamide] |  |
| 108 to 110 °C | CS(=O)(=O)Nc1cnc(NC(=O)[C@H](CC2CCCC2)c2ccc(S(C)(=O)=O)c(Cl)c2)cn1 [Example 13, 2(R)-(3-Chloro-4-methanesulfonyl-phenyl)-3-cyclopentyl-N-(5-methanesulfonylamino-pyrazin-2-yl)-propionamide] |  |
| 130 to 133 °C | CS(=O)(=O)c1ccc(C(CC2CCCC2)C(=O)Nc2cnc(/C(C#N)=N\O)cn2)cc1Cl (stereo not drawn) [Example 37, 2-(3-Chloro-4-methanesulfonyl-phenyl)-N-[5-(cyano-hydroxyimino-methyl)-pyrazin-2-yl]-3-cyclopentyl-propionamide] |  |
| 70 to 75 °C | CSCc1cnc(NC(=O)C(CC2CCCC2)c2ccc(S(C)(=O)=O)c(Cl)c2)cn1 (stereo not drawn) [Example 30, 2-(3-Chloro-4-methanesulfonyl-phenyl)-3-cyclopentyl-N-(5-methylsulfanylmethyl-pyrazin-2-yl)-propionamide] |  |
| 77 to 80 °C | CC(=O)c1cnc(NC(=O)[C@H](CC2CCCC2)c2ccc(S(C)(=O)=O)c(Cl)c2)cn1 [Example 39, N-(5-Acetyl-pyrazin-2-yl)-2(R)-(3-chloro-4-methanesulfonyl-phenyl)-3-cyclopentyl-propionamide] |  |
